ChEMBL document CHEMBL4831508, “Anti-inflammatory Cassane-Type Diterpenoids from the Seed Kernels of Caesalpinia sinensis” (J Nat Prod, 2021)

How the values were obtained:
RAW264.7 [1] = assay: Cytotoxicity against mouse RAW264.7 cells assessed as cell viability measured after 24 hrs by CCK8 assay; type: cell-based; conditions: raw264.7, 24 h
RAW264.7 [2] = assay: Antiinflammatory activity in mouse RAW264.7 cells assessed as inhibition of LPS-induced NO production preincubated for 3 hrs followed by LPS-stimulation and measured after 24 hrs by Griess reagent based assay; type: functional, cell-based
RAW264.7 [3] = assay: Antiinflammatory activity in mouse RAW264.7 cells assessed as inhibition of LPS-induced iNOS enzyme activity preincubated for 3 hrs followed by LPS-stimulation and measured after 24 hrs by fluorescence plate reader assay; type: functional, cell-based; conditions: dose 3-30 µM
RAW264.7 [4] = assay: Antiinflammatory activity in mouse RAW264.7 cells assessed as inhibition of LPS-induced iNOSs protein expression preincubated for 3 hrs followed by LPS-stimulation and measured after 24 hrs by Western blot analysis; type: functional, cell-based; conditions: dose 3-30 µM

SMILES | Activity (RAW264.7 [1]) | IC50 (RAW264.7 [2]) [µM] | inhibition (RAW264.7 [3]) | inhibition (RAW264.7 [4])
C[C@H]1C2=CC(=O)OC2=C[C@H]2[C@H]1C[C@@H](O)[C@H]1C(C)(C)CCC[C@]21C | Non-Toxic | 34.4 | – | –
CO[C@@]12C[C@H]3[C@@H](C[C@@H](OC(C)=O)[C@H]4C(C)(C)CCC[C@]34C)[C@@H](C)C1=CC(=O)O2 | Non-Toxic | > 50 | – | –
C[C@H]1C2=CC(=O)O[C@@H]2C[C@H]2[C@H]1C[C@@H](O)[C@H]1[C@@](C)(CO)CCC[C@]21C | Non-Toxic | > 50 | – | –
CO[C@@]12C[C@H]3[C@@H](C[C@@H](O)[C@H]4C(C)(C)CCC[C@]34C)[C@@H](C)C1=CC(=O)O2 | Non-Toxic | 29.2 | – | –
C[C@H]1C2=CC(=O)OC2=C[C@H]2[C@H]1C[C@@H](O)[C@H]1[C@](C)(CO)CCC[C@]21C | Non-Toxic | 45.8 | – | –
C[C@H]1C2=CC(=O)NC2=C[C@H]2[C@H]1C[C@@H](O)[C@H]1C(C)(C)CCC[C@]21C | Non-Toxic | 8.2 | Dose-Dependent Effect | Dose-Dependent Effect
C[C@@H]1[C@@H]2C[C@@H](O)[C@H]3[C@](C)(CO)CCC[C@]3(C)[C@H]2C=C2NC(=O)C[C@@H]21 | Non-Toxic | 21 | – | –
C[C@H]1C2=CC(=O)O[C@@H]2C[C@H]2[C@H]1C[C@@H](O)[C@H]1C(C)(C)CCC[C@]21C | Non-Toxic | 40.3 | – | –
CC(=O)O[C@@H]1C[C@H]2[C@@H](C)C3=CC(=O)OC3=C[C@@H]2[C@@]2(C)CCCC(C)(C)[C@H]12 | Non-Toxic | > 50 | – | –
CC(=O)O[C@@H]1C[C@@H]2[C@H](C=C3NC(=O)C=C3[C@]2(C)O)[C@@]2(C)CCCC(C)(C)[C@H]12 | Non-Toxic | 11.2 | – | –
CC(=O)O[C@@H]1C[C@@H]2[C@H](C=C3NC(=O)C=C3[C@@]2(C)O)[C@@]2(C)CCCC(C)(C)[C@H]12 | Non-Toxic | 9.8 | – | –
CO[C@@]12C[C@H]3[C@@H](C[C@@H](O)[C@H]4[C@](C)(CO)CCC[C@]34C)[C@@H](C)C1=CC(=O)O2 | Non-Toxic | > 50 | – | –
CC(=O)O[C@H]1CC[C@]2(C)[C@H]3C[C@H]4OC(=O)C=C4[C@H](C)[C@@H]3CC[C@H]2C1(C)C | Non-Toxic | 49.8 | – | –
CO[C@@]12C[C@H]3[C@@H](CC[C@H]4C(C)(C)CCC[C@]34C)[C@@H](C)C1=CC(=O)O2 | Non-Toxic | > 50 | – | –
C[C@@H]1C[C@H]2[C@@H]3CCC4=CC(=O)C=C[C@]4(C)[C@@]3(F)[C@@H](O)C[C@]2(C)[C@@]1(O)C(=O)CO [DEXAMETHASONE] | Non-Toxic | 0.58 | – | –
CC(=O)O[C@@H]1C[C@H]2[C@@H](C)C3=CC(=O)O[C@@H]3C[C@@H]2[C@@]2(C)CCCC(C)(C)[C@H]12 | Non-Toxic | > 50 | – | –
C[C@H]1C2=CC(=O)N(CCO)[C@@H]2C[C@H]2[C@H]1C[C@@H](O)[C@H]1C(C)(C)CCC[C@]21C | Non-Toxic | 16.4 | – | –
C[C@H]1C2=CC(=O)O[C@]2(O)C[C@H]2[C@H]1C[C@@H](O)[C@H]1C(C)(C)CCC[C@]21C | Non-Toxic | 21.5 | – | –
CC(=O)O[C@@H]1CC(C)(C)[C@@H]2CC[C@H]3[C@@H](C)C4=CC(=O)O[C@@H]4C[C@@H]3[C@@]2(C)C1 | Non-Toxic | > 50 | – | –
